Measured values taken from US20220280543A1, “DDX17 AND NLRC4 TARGETING FOR INFLAMMATORY DISEASES” (University of Virginia Patent Foundation, priority 2019, published 2022).

Legend:
[1] = tested on: ASC oligomerization; test: Alu RNA induced ASC oligomerization in THP1 cells after siRNA knockdown; type: cell-based, human; conditions: siRNA knockdown (FIG. 12A)
Text: (§1) FIGS. 12A and 12B. DDX17 knockdown blocks Alu RNA (SEQ ID NO: 86) induced ASC oligomerization and IL-1β release. FIG. 12A. siRNA mediated DDX17 knockdown (siRNA for DDX17: CCAAUCUGAUGUAUCAGGA; SEQ ID NO: 91), but not Ddx5 (siRNA for DDX5: GGAAAUUACAGUUAGAGGU; SEQ ID NO: 89) in THP1 cells, blocked Alu RNA (SEQ ID NO: 86) induced ASC oligomerization. The band of ASC oligomers were indicated by black arrow. FIG. 12B. siRNA mediated DDX17 knockdown, but not Ddx5 in THP1 cells, blocked Alu RNA (SEQ ID NO: 86) induced IL-1β release.
(§2) To further confirm that DDX17 is the sensor for NLRC4, we investigated caspase-1 cleavage by immunoblotting and IL-1β secretion by ELISA in Alu RNA (SEQ ID NO: 86) or mock treated THP1 cells and DDX17 KO BMDMs respectively.

[2] = tested on: RPE degeneration; test: Alu RNA induced RPE degeneration in mice, fundus images and ZO-1 staining; type: in vivo; conditions: mice, subretinal Alu RNA; fundus and ZO-1 (FIGS. 25B, 26)
Experimental: FIGS. 25A and 25B. NLRC4 knockdown blocks Alu RNA (SEQ ID NO: 86) induced ASC oligomerization and RPE degeneration. Human RPE cell treated with siRNA target on NLRC4 (SMARTPOOL siRNA for NLRC4: CAACUGGGCUCCUCUGUAA; SEQ ID NO: 93) and NAIP (SMARTPOOL siRNA for NAIP: GUAAAGAGCUAUAUGGAUA; SEQ ID NO: 94), 24 hours later, treated with Alu RNA (SEQ ID NO: 86 at 100 pmol) FIG. 25A. […] The band of ASC oligomers was indicated by black arrow. […] The hyperdense areas due to the RPE degeneration in fundus images and ZO-1 disorganizations in RPE sheet are indicated by white arrows.
FIG. 26. […] Wilde type of C57/B6 mice were intravitreally injected with siRNA target on Ddx17 (siRNA for Ddx17: GGCUAGAUGUGGAAGAUGU; SEQ ID NO: 95), and two days later, Nlrc4^−/−, Naip1-6^−/−, mice and Ddx17 knockdown mice were subretinally injected with Alu RNA (SEQ ID NO: 86). […] The hyperdense areas due to the RPE degeneration in fundus images and ZO-1 disorganizations in RPE sheet are indicated by white arrows.
Next, we asked whether Alu RNA (SEQ ID NO: 86) also triggered NLRC4 inflammasome activation in human RPE cells. We performed immunofluorescence staining experiments to examine whether Alu RNA (SEQ ID NO: 86) can induce NLRC4 speck formation in human RPE cells. We noticed punctate structures resembling specks of NLRC4 in human RPE cells in response to Alu RNA (SEQ ID NO: 86) treatment (FIG. 24A). […] We further investigated downstream events of NLRC4 inflammasome activation by studying NLRC4-induced ASC oligomerization, a critical step involved in caspase-1 cleavage. NLRC4 siRNA, when co-administered with Alu RNA (SEQ ID NO: 86), blocked ASC oligomerization in vitro (FIG. 25A) and RPE degeneration in vivo (FIG. 25B).
We delivered Alu RNA (SEQ ID NO: 86) or Alu RNA (SEQ ID NO: 86)+siDDX17 subretinally in WT or NLRC4 KO or NAIP1-6 KO mice and examined for RPE degeneration using fundus photos and ZO-1 staining as described previously.

[3] = tested on: caspase-1; test: Alu RNA induced caspase-1 activation in THP1 cells after siRNA knockdown; type: cell-based, human; conditions: siRNA knockdown (FIGS. 11A, 11B)
Text: FIGS. 11A and 11B. Ddx17 involved in Alu RNA (SEQ ID NO: 86) induced inflammasome independent of its microprocessor function. DDX17 is a component of microprocessor complexes with DDX5 and Drosha. To test whether the microprocessor function of DDX17 is required for Alu RNA (SEQ ID NO: 86) induced inflammasome, we measured caspase-1 activation in THP cells with DDX5 or Drosha knockdown (siRNA for DDX5: GGAAAUUACAGUUAGAGGU; SEQ ID NO: 89); siRNA for Drosha: GACAAGUUGAUAGGAUAUA; SEQ ID NO: 90). FIG. 11A. siRNA mediated Ddx17 knockdown, but not Ddx5 in THP1 cells, blocked Alu RNA (SEQ ID NO: 86) induced caspase-1 activation. […] The caspase-1 (p20) bands were indicated with black arrows.
We next examined whether DDX5 or DDX17 was the sensor for Alu RNA (SEQ ID NO: 86) induced NLRC4 inflammasome activation. Due to the high degree of similarity in the sequences of DDX5 and DDX17, we designed 3 siRNAs targeting DDX5 alone, DDX17 alone, or both DDX5 and DDX17, and confirmed their target efficiency in THP1 cells (FIG. 11A). […] Therefore, we tested whether Drosha is also involved in SINE RNA-DDX17-NLRC4 axis. […] These observations implicate that DDX17 mediated SINE RNA induced NLRC4 inflammasome is independent of microprocessor function.

[4] = tested on: CXCL10, IFNB, IL-1β, CASPASE-1 expression; test: Alu RNA induced type I interferon response and inflammatory priming, qPCR, BMDM with DDX17 knockdown; type: cell-based, mouse; conditions: siRNA 24 hours before Alu RNA 100 pmol, qPCR (FIGS. 14A, 14B)
Experimental: FIGS. 14A and 14B. […] Wild type BMDM cell were transfected with siRNA target on DDX17 (CCAAUCUGAUGUAUCAGGA; SEQ ID NO: 91), and then 24 hours later, BMDM cells were treated with Alu RNA (SEQ ID NO: 86; 100 pmol). Total RNA extracted for qPCR assay.
We previously reported that Alu RNA (SEQ ID NO: 86) induces a type I interferon (IFN) response and inflammatory priming in BMDMs. Since DDX17 is essential for Alu RNA (SEQ ID NO: 86) induced inflammasome activation, we tested whether DDX17 knockdown could affect downstream events of the inflammasome cascade such as the type I IFN response.

[5] = tested on: NLRC4 inflammasome; test: Flagellin induced classical NLRC4 inflammasome (caspase-1) after DDX17 knockdown; type: cell-based; conditions: Flagellin 3 μg/ml, siRNA 24 hours before (FIG. 15)
Experimental: (§3) FIG. 15. […] THP1 cell were transfected with siRNA target on DDX17 (siRNA sequence: CCAAUCUGAUGUAUCAGGA; SEQ ID NO: 91), and then 24 hours later, Flagellin (3 μg/ml) or LPS (125 ng/ml) plus ATP ([…]/30 minutes), DOTAP plus LPS was added to the THP1 cells. Supernatants were collected for Caspase-1 detection. […] Loading control show by actin. The caspase-1 precursor is referred as p45, and the active form of caspase-1 as p20. The adaptor protein for inflammasome assembly, apoptosis-associated speck-like protein containing a CARD (ASC) is labeled as ASC. The caspase-1p20) bands were indicated with black arrow.
(§4) We finally examined whether DDX17 has a role in conventional NLRC4 activation by flagellin that requires NAIP and LPS+ATP dependent NLRP3 inflammasome activation. We treated […] with flagellin or LPS+ATP and transfected with siDDX17 and examined NLRC4 or NLRP3 dependent caspase-1 cleavage.

[6] = tested on: NLRP3 inflammasome; test: LPS+ATP induced NLRP3 inflammasome (caspase-1) after DDX17 knockdown; type: cell-based; conditions: LPS 125 ng/ml plus ATP, siRNA 24 hours before (FIG. 15)
Experimental: as §3, §4

[7] = tested on: IL-1β; test: Alu RNA induced IL-1β release in THP1 cells after siRNA knockdown, ELISA; type: cell-based, human; conditions: siRNA knockdown (FIG. 12B)
Text: as §1, §2

With “siDDX17: siRNA for DDX17: CCAAUCUGAUGUAUCAGGA; SEQ ID NO: 91 (chemistry not fully specified)” as the substance, how does the “Alu RNA induced ASC oligomerization, THP1 cells” value [1] read?
Its value is “prevented”.

What about the “Alu RNA induced RPE degeneration in vivo, effect of siRNA” value [2] of the same substance?
The value was “rescued from this phenotype”.

What about the “caspase-1 cleavage in Alu RNA treated THP1 cells” value [3] of the same substance?
Its value is “inhibited”.

What about the “caspase-1 cleavage in Alu RNA treated THP1 cells” value ([3]; listed as DDX17 siRNA) of the same substance?
The value was “reduce”.

What about the “expression of caspase-1, CXCL10, IFNβ, IL-18 and IL-1β genes after Alu RNA” value [4] of the same substance?
Its value is “did not affect”.

And the “flagellin induced NLRC4 inflammasome, caspase-1 levels” value [5]?
The value was “does not affect”.

What about the “LPS+ATP induced NLRP3 inflammasome, caspase-1 levels” value [6] of the same substance?
The value was “does not affect”.

What about the “Alu RNA induced IL-1β release, THP1 cells, ELISA” value [7] of the same substance?
The value was “significantly reduced”.
